The melting point is the temperature, or range, at which the solid turns liquid. `CC(C)n1nc(-c2cnc(N)nc2-c2ccccc2)ccc1=O`: the melting point was in the range of 214 to 215 °C.

The compound `COc1cccc2cc(C(=O)OCC(C)C)[nH]c12` displayed a melting point of 100 to 101 °C.

Turning to `O=S(=O)(NCC(O)(Cn1cncn1)c1ccc(Cl)cc1Cl)c1cccs1` (configuration not stated), the melting point was in the range of 169 to 180 °C.

As for `CC(=O)c1cnc2c(cnn2Cc2ccco2)c1O`, the melting point lay within 108 to 110 °C.

Turning to `CNC(=O)C1CCc2c(C(=O)c3ccccc3)cccc21` (configuration not stated), the melting point lay within 145 to 146 °C.

`CCN(CC)C(=O)c1ccc(CCCCOCCCCCCN(Cc2ccccc2)CC(O)c2ccc(O)c3[nH]c(=O)ccc23)cc1` (configuration not stated) showed a melting point of 101 to 103 °C.

For `CCCCCCCN(CCCCCSc1nc(-c2ccccc2)c(-c2ccccc2)[nH]1)C(=S)Nc1ccc(F)cc1F`, the melting point lay in the range of 116 to 118 °C.

The compound `CC(=O)c1c(C)nc(N(Cc2ccccc2)Cc2ccccc2)c(N)c1NCCc1ccccc1` came in with a melting point of 152 to 153 °C.

The compound `CCOC(=O)CSc1nc(Cl)c(C)c(Cl)n1` registered a melting point of 66 to 70 °C.

`CN1CCN(Cc2ccc(NC(=O)C#Cc3ccc(-c4ccc(Cl)cc4)cc3)cc2)CC1` yielded a melting point of 182 to 185 °C.

For `CCOCc1nc2c(N)nc3ccccc3c2n1NC(CC)CC`, the melting point lay in the range of 125 to 128 °C.

With `CC(=O)Nc1ccccc1NS(=O)(=O)c1cc(C(=O)O)cc([N+](=O)[O-])c1Oc1ccccc1`, the melting point fell in the range of 224 to 226 °C.

`Cc1nc2c(s1)-c1nc(Nc3ccccc3)ncc1CC2` had a melting point of 223 to 224 °C.

In turn, `Nn1nc(-c2ccc(Cl)cc2)cc1OCCN1CCOCC1` registered a melting point of 120 to 121 °C.

Regarding `O=C=Nc1cc(OCC(F)(F)F)ccc1OCC(F)(F)F`, the melting point was in the range of 50 to 52 °C.

`CCOC(=O)CN(CCc1ccccc1)C(=O)CCc1nc2c(F)c(F)cc(F)c2s1` yielded a melting point of 78 to 81 °C.

Regarding `CC(C)(C)OC(=O)NC1CCCC(NC(=O)c2ccc(-c3[nH]nc4c3C(=O)c3c(NC(=O)NN5CCOCC5)cccc3-4)s2)C1` (configuration not stated), the melting point is over 300 °C.

Compound `CCCc1c(OCCCCCBr)ccc2c1OCCC2=O` displayed a melting point of 47 to 48 °C.

Turning to `CCOP(=O)(COS(=O)(=O)c1c(C)cccc1Cl)OCC`, the melting point is 41 to 43 °C.

`Cc1ccc(S(=O)(=O)N2CCCC2c2ccc(F)c(Cl)c2)cc1` (racemic) gave a melting point of 96 °C.

Compound `COC(=O)c1ccc(-c2nc(-c3ccc(Cl)s3)cs2)cc1` returned a melting point of 171 to 172 °C.

With `CC(C)Cn1c(=O)[nH]c2c(C(N)=O)nc(-c3cccc(O)c3)nc21`, the melting point is 374 to 376 °C.

Compound `COC(=O)c1ccc(C)c(-n2c(C)cc(OCc3ccc(F)cc3CNC(=O)Nc3cc(C(C)(C)C)nn3-c3ccc(O)cc3)c(Cl)c2=O)c1` displayed a melting point of 188 to 190 °C.

On to `Nc1nc2nc(SCc3ccccc3)nc(Cl)c2s1`, for which the melting point was in the range of 217 to 218 °C.

In turn, `O=C1CCC2=C(c3ccccc3)c3cc(Cl)ccc3C2N1` (configuration not stated) gave a melting point of 234 to 238 °C.

In turn, `CN(Cc1ccc(NC(=O)C2=Cc3cc(-c4ccc(OCc5ccc(Cl)s5)cc4)ccc3S(=O)(=O)CC2)cc1)C1CCOCC1` had a melting point of 207 to 210 °C.

As to `CCOc1ccc(S(=O)(=O)n2nc(O)cc2N)cc1-c1nc2cccnc2c(=O)[nH]1`, the melting point was 246 to 249 °C.

`COc1ccc2c(c1)S(=O)(=O)c1c(cc(OC)c(OC(C)=O)c1Br)N2` displayed a melting point of 258 to 260 °C.

Compound `CCOC(=O)C(C)Oc1ncn(-c2cccc(C(F)(F)F)c2)n1` (configuration not stated) returned a melting point of 100 to 102 °C.

`C[Si](C)(C)O[Si]1(O[Si](C)(C)C)O[Si](O[Si](C)(C)C)(O[Si](C)(C)C)O[Si](O[Si](C)(C)C)(O[Si](C)(C)C)O1` had a melting point of 103 °C.

In turn, `O=c1[nH]cc(-c2ccncc2)cc1[N+](=O)[O-]` displayed a melting point of 258 to 260 °C.

Compound `COc1nc(C)c2c(c1C#N)CCCC2=O` returned a melting point of 128 °C.

`Cc1cccc2c1SC1(CC1)C2=O`: the melting point fell in the range of 74 to 75 °C.

In the case of `CC(C)CNC(=O)CC1Sc2sc(S(N)(=O)=O)cc2NC1=O` (configuration not stated), the melting point is over 250 °C.

Compound `COCOc1ccc(-c2ncc3ccc(-c4csc(CN5CCN(C)CC5)c4)nc3n2)cc1` returned a melting point of over 268 °C.

In the case of `COc1cc2c(cc1OC)CN(CCc1ccc(N)cc1)CC2`, the melting point was 120 °C.

As to `Cc1cc(-n2nc(C#N)cc2-c2ccc(S(C)(=O)=O)cc2)ccc1Br`, the melting point came out at 152 °C.

`CC1(C)OCC2OC2CO1` (configuration not stated) showed a melting point of 70 to 74 °C.

Compound `COC1=C(OC)C(=O)C(CCCCCCCCCC(=O)N[C@H](Cc2ccccc2)C(=O)O)=C(C)C1=O` returned a melting point of 96 to 98 °C.

The compound `CC(C)C(CCl)NC(=O)c1nsc2ccc(-n3c(=O)cc(C(F)(F)F)n(C)c3=O)cc12` (configuration not stated) had a melting point of 196 to 197 °C.

Turning to `COc1cc(Cc2cnc(N)nc2N)cc(OC)c1N`, the melting point was 209 to 210 °C.

On to `CCCCCCCCCN(C[C@H]1CC[C@H](CN(CCCCCCCCC)C(=O)Nc2ccc(N(C)C)cc2)CC1)C(=O)Nc1ccc(N(C)C)cc1`, for which the melting point lay within 96 to 98 °C.

Compound `CC(=O)SCC(C)C(=O)N(C(C)C(=O)O)C1CCc2ccccc21` (configuration not stated) had a melting point of 133 to 137 °C.

For the compound `COC(=O)NCc1c[nH]c(=S)n1[C@H]1CCc2c(F)cc(F)cc2C1`, the melting point was 220 to 222 °C.

The compound `O=C(Nc1nccs1)c1ccc(CN2C(=O)C3(COc4cc5c(cc43)CCO5)c3ccccc32)cc1` (configuration not stated) had a melting point of over 250 °C.

As for `NC(=NO)c1cccc2ccccc12`, the melting point is 128 to 130 °C.

`COc1cc(C2CCN(C[C@H](Oc3ncc4ccc(-c5ccccc5OC)n4n3)C(F)(F)F)CC2)ccc1N` registered a melting point of 73 to 82 °C.

`N#CN=C1CCCN1C1=CC(CF)(CF)Oc2ccc(C(F)(F)C(F)(F)F)cc21` showed a melting point of 207 to 210 °C.

Compound `C/C=C/[C@H](O)C[C@]1(C)CCc2c(C)c(OCc3ccccc3)c(C)c(C)c2O1` returned a melting point of 68 to 70 °C.

As to `CCCNc1c2c(nc3ccccc13)CCCC2O` (configuration not stated), the melting point amounted to 164 °C.

In the case of `CC(=O)OC(Cn1cncn1)c1ccc(Cl)cc1Cl` (configuration not stated), the melting point lay within 92 to 96 °C.

In turn, `COc1ccccc1N1CCN(CCNC(=O)CCN2CC=C(c3c[nH]c4cc(F)ccc34)CC2)CC1` displayed a melting point of 175 to 177 °C.

Compound `C1=C(c2cc3ccccc3s2)CCC2(C1)CCNCC2` displayed a melting point of 107 to 110 °C.

In turn, `O=C(O)CSCCSc1ccc(O)cc1` showed a melting point of 105 °C.

In the case of `CCC(=O)Nc1cc(S(=O)c2ccccc2)ccc1NC(=NC(=O)OC)NC(=O)OC` (configuration not stated), the melting point was 193 to 195 °C.

`Cc1nnc2n1-c1sc(CC(=O)N3CCOCC3)cc1C(c1ccccc1Cl)=NC2C` (configuration not stated) had a melting point of 126 to 129 °C.

Turning to `COC(=O)c1ccn(C)c1S(=O)(=O)NC(C)(C)C`, the melting point lay in the range of 105 to 108 °C.

For `Cc1cc(F)c(F)cc1O`, the melting point was 68 to 70 °C.

Compound `NC(=O)c1ccc(C(F)(F)F)c(Br)c1` came in with a melting point of 148 to 150 °C.

`CN1C(=O)CC[C@]2(C)c3ccc(-c4ccc(C#N)cc4)cc3CC[C@@H]12` came in with a melting point of 148 to 150 °C.

`COC(=O)COc1ccc(Cc2ncc(C(F)(F)F)cc2Cl)c(Cl)c1Cl`: the melting point fell in the range of 110 to 111 °C.

In the case of `CCOC(=O)C(=CN(CC)c1cccs1)C(=O)OCC`, the melting point was 41 to 42 °C.

Turning to `CCOC(=O)C(=O)Nc1ccc(Br)cc1[N+](=O)[O-]`, the melting point is 168 to 169 °C.

`CCc1nnc(-c2ccc(OC)cc2)n1-c1ccc(OC)c(OC)c1`: the melting point is 150 °C.

The compound `Cc1ccc(CN2CC=C(/C=C/c3ccc(Cl)cc3)CC2)cc1` showed a melting point of 113 to 115 °C.

Compound `COc1ccc(C2(C(=O)Oc3ccc(C(=O)NO)cc3)CCCC2)cc1` had a melting point of 143 to 144 °C.

For `CCCCCCCCCCCCCCCCCCNP1OCC2(CO1)COP(NCCCCCCCCCCCCCCCCCC)OC2` (configuration not stated), the melting point lay within 67 to 70 °C.

For `[O-][N+]1=C(c2ccccc2)C2=NCCN2c2cc(N3CCNCC3)ccc21`, the melting point is 209 to 211 °C.

The compound `O=C(O)c1cn(-c2ccc(F)cc2)c(-c2ccc(O)cc2)cc1=O` had a melting point of 185 to 193 °C.

`CC(=O)Oc1ccc(-n2c(-c3ccccc3)cc3c2CCCC3)cc1C(=O)O` had a melting point of 155 to 162 °C.

In the case of `O=S1(=O)c2ccccc2N(c2ccc(OCc3ccccc3)cc2)c2ccccc21`, the melting point fell in the range of 203 to 208 °C.

As for `CC(=O)OCC1Cc2c(c3cccnc3n(-c3ccccc3)c2=O)O1` (configuration not stated), the melting point lay in the range of 207 to 208 °C.

Take `O=c1ccn(-c2cccc(Oc3nc4ccccc4[nH]3)c2)nc1-c1ccnn1-c1ccccc1`: the melting point lay within 149 to 150 °C.

Turning to `CC(=O)C1(COC(N)=O)CC2C=CC1C2` (configuration not stated), the melting point lay within 118 to 119 °C.

Take `COC(=O)CCS(=O)(=O)c1ccc(C=C(C)c2ccc3c(c2)C(C)(C)CCC3(C)C)cc1`: the melting point was 118 to 120 °C.

Take `NCCNc1ccc2[nH]ncc2c1`: the melting point is 150 to 165 °C.

Compound `CCc1nc(/C=C/c2cn(-c3ccccc3)nc2OCc2ccc(OCc3nc(-c4cccc(CO)c4)oc3C)c(OC)c2)cs1` came in with a melting point of 130 to 132 °C.

In turn, `NS(=O)(=O)c1ccc(C2=C(c3ccc(F)c(Cl)c3)CCC2)cc1` returned a melting point of 150 to 152 °C.

Turning to `O=C(NC[C@H]1CN(c2ccc3c(c2)CCCc2cnoc2-3)C(=O)O1)C(F)F`, the melting point was in the range of 145 to 180 °C.

As for `CC1(C)C2CC[C@@]1(N1CCCCC1)C(=O)C2`, the melting point lay within 78 to 79 °C.

`CCCCOc1cc(/C=C/C(=O)O)n(Cc2ccc(C(F)(F)F)cc2Cl)n1` yielded a melting point of 172 to 174 °C.

In the case of `COC(=O)c1ccc(NC(=O)CCc2cnoc2-c2ccccc2)cc1`, the melting point fell in the range of 111 to 112 °C.

For `Cc1cccc(N(c2ccccc2)c2ccc(N(c3ccccc3)c3cccc(C)c3)cc2)c1`, the melting point was 170 to 171 °C.

The compound `CCn1ncc(C(=O)c2ccc(Cl)cc2Cl)c1O` registered a melting point of 144 to 146 °C.

As for `COC(=O)C(=O)c1ccc(SCCOc2ccc3ccccc3c2)cc1`, the melting point is 124 to 125 °C.

Regarding `COC(=O)c1nc(-c2cnco2)cc(N)c1Cl`, the melting point is 166 to 170 °C.

Take `CCC[C@H]1C(=O)N(S(=O)(=O)c2cccc3ccccc23)[C@H]2CCN(S(=O)(=O)CCCN3CCOCC3)[C@H]12` (relative stereo): the melting point fell in the range of 146 to 148 °C.

The values are drawn from a melting point compilation (Tetko et al.; mined from patent text by program, amines drawn as free bases though some values may be those of a salt).
